Laboratory results published in patent US7432400B2, “Biphenylene compounds” (Ciba Specialty Chemicals Corp., priority 2001, dated 2008).
Where “and” joins values, the source holds several entries; their conditions need not be identical. Equal entries are not always repeated.

assay: UV absorption (λmax) of the biphenyl compounds as UV filters; format: physicochemical; settings: in DMSO

| SMILES | λmax (DMSO) |
| --- | --- |
| O=C1NC(=O)C(=Cc2ccc(-c3ccc(C=C4C(=O)NC(=O)NC4=O)cc3)cc2)C(=O)N1 [Example 15] | 396 nm |

same assay, conditions: in DMSO, at λmax 396 nm

| SMILES | E (1%, 1 cm) |
| --- | --- |
| O=C1NC(=O)C(=Cc2ccc(-c3ccc(C=C4C(=O)NC(=O)NC4=O)cc3)cc2)C(=O)N1 [Example 15] | 1134 |

same assay, conditions: in dioxane

| SMILES | λmax (dioxane) |
| --- | --- |
| O=C1/C(=C/c2ccc(-c3ccc(/C=C4/C(=O)C5CCN4CC5)cc3)cc2)N2CCC1CC2 [Example 13] | 235 nm and 350 nm |

assay: as above; format: physicochemical; settings: measured in acetonitrile 98/water 2
Excerpt: By way of example, the following Table lists a number of biphenyl compounds according to the invention together with their λmax values (measured in acetonitrile 98/water 2).

| SMILES | λmax [nm] |
| --- | --- |
| CC(C)(C)C1CCC(=O)/C(=C/c2ccc(-c3ccc(/C=C4\CC(C(C)(C)C)CCC4=O)cc3)cc2)C1 (centres unmarked) [Example 1] | 357 nm |
| O=C1/C(=C/c2ccc(-c3ccc(/C=C4\CCc5ccccc5C4=O)cc3)cc2)CCc2ccccc21 [Example 2] | 351 nm |
| COc1ccc2c(c1)CC/C(=C\c1ccc(-c3ccc(/C=C4\CCc5cc(OC)ccc5C4=O)cc3)cc1)C2=O [Example 3] | 351 nm |
| CCCCCCC1CC/C(=C\c2ccc(-c3ccc(/C=C4\CCC(CCCCCC)C4=O)cc3)cc2)C1=O (centres unmarked) [Example 4] | 282 nm |
| O=C(/C=C/c1ccc(-c2ccc(/C=C/C(=O)c3ccc(F)cc3)cc2)cc1)c1ccc(F)cc1 [Example 5] | 358 nm |
| O=C1CCCCC/C1=C\c1ccc(-c2ccc(/C=C3\CCCCCC3=O)cc2)cc1 [Example 6] | 337 nm |
| O=C1CCCCCC/C1=C\c1ccc(-c2ccc(/C=C3\CCCCCCC3=O)cc2)cc1 [Example 7] | 315 nm |
| C/C(=C\c1ccc(-c2ccc(/C=C(\C)C(=O)c3ccccc3)cc2)cc1)C(=O)c1ccccc1 [Example 8] | 326 nm |
| O=C(/C(=C/c1ccc(-c2ccc(/C=C(/C(=O)c3ccccc3)c3ccccc3)cc2)cc1)c1ccccc1)c1ccccc1 [Example 9] | 326 nm |
| O=C1OCCCC/C1=C\c1ccc(-c2ccc(/C=C3\CCCCOC3=O)cc2)cc1 [Example 10] | 361 nm |
| CC(=O)/C(=C\c1ccc(-c2ccc(/C=C(\C(C)=O)C(=O)OC(C)(C)C)cc2)cc1)C(=O)OC(C)(C)C [Example 11] | 345 nm |
